Assays:
[1] = system: pS2448mTOR, pS473Akt, pY/pT-ERK2 in HMEC; experiment: Activated (phosphorylated) mTOR, Akt and ERK2 levels (immunoprecipitation, Western blotting); type: cell-based, human; conditions: 0.1-5 nM; 4 days
Method: (§1) Cells were treated with vehicle and 0.1-5 nM C0105 for 4 days. Cells were washed, solubilized and the resultant cell lysate was immunoprecipitated with anti-mTOR, -Akt or -ERK2. The levels of pS^2448mTOR, pS^473Akt, pY/pTERK2 in the respective anti-mTOR, -Akt, and -ERK2 immunoprecipitates were determined by Western blotting (not shown). The density of protein bands was measured by densitometric scanning. […] FIGS. 13C and 13G and FIGS. 13D and 13H show similarly obtained data for immunoprecipitates from HMEC and HPEC cells, respectively. Cell treatments and data handling were as discussed in FIG. 12.
(§2) To study the effect of Compound C0105 on pS^2152FLNA levels, FLNA linkages to key regulators including protein phosphatases as well as activated Akt (pS^473-, pT^308-Akt), mTOR ([…]) and ERK (pY/pT-ERK) levels, the cancer and normal cells were cultured to approximately 90% confluency and treated with vehicle or varying concentrations of Compound C0105. The cells were washed with warm phosphate-buffered saline (PBS), pH 7.2, dissociated, homogenized by sonication and solubilized using 0.5% NP-40 (nonoxynol 40), 0.2% sodium cholate and 0.5% digitonin for 1 hour at 4° C.
(§3) The cell lysates were diluted 5-fold with immunoprecipitation buffer and immunoprecipitated with anti-FLNA, -Akt, -mTOR and -ERK2 as described previously [Talbot et al., J Clin Inv 122(4):1-23 (2012); Wang et al., J Neurosci 32(29):9773-9784 (2012)]. The levels of FLNA linkages, activated phosphorylated Akt (pS^473 and pT^308), phosphorylated mTOR (pS^2448) and phosphorylated ERK2 (pY/pT) were determined in anti-FLNA, -Akt, -mTOR and -ERK2 immunoprecipitates by Western blotting with appropriate antibodies directed against PTEN, PP2A, K-RAS, ras-GAP (FLNA linkages), pS^473Akt, pT^308Akt, pS^2448mTOR and pY/pT ERK2 (activation of Akt, mTOR and ERK2).

[2] = system: pS2448mTOR, pS473Akt, pY/pT-ERK2 in HTB-22 cells; experiment: as above; type: cell-based, human; conditions: 0.1-5 nM; 4 days
Method: as §1, §2, §3

[3] = system: pS2448mTOR, pS473Akt, pY/pT-ERK2 in HPEC; experiment: as above; type: cell-based, human; conditions: 0.1-5 nM; 4 days
Method: as §1, §2, §3

[4] = system: pS2448mTOR, pS473Akt, pY/pT-ERK2 in MiaPaCa2 cells; experiment: as above; type: cell-based, human; conditions: 0.1-5 nM; 4 days
Method: as §1, §2, §3

[5] = system: pS2152FLNA, FLNA-associated PTEN and PP2A in glioblastoma cells; experiment: pS2152FLNA and FLNA-associated PTEN and PP2A in anti-FLNA immunoprecipitate (Western blotting); type: cell-based, human; conditions: 0.1-5 nM; 4 days
Method: The effect of Compound C0105 on the levels of pS^2152FLNA and FLNA-associated phosphatases, PTEN and PP2A subclasses was determined in glioblastoma cells. Cells were treated with vehicle and 0.1-5 nM Compound C0105 for 4 days. Cells were washed and solubilized, and the resultant cell lysate was immunoprecipitated with anti-FLNA. The levels of pS^2152FLNA and FLNA-associated phosphatases, PTEN and PP2A subclasses in the anti-FLNA immunoprecipitate were determined by Western blotting. The density of protein bands was quantified by densitometric scan. […] N=4. **p<0.05, *p<0.01 compared to vehicle (open bars). […]
as §3

[6] = system: small-cell lung carcinoma cells; experiment: [3H]thymidine incorporation; type: cell-based, human; conditions: 0.1-5 nM; 96 hours
Method: (§4) The effect of Compound C0105 on cell proliferation was determined by the level of [^3H]thymidine incorporation in glioblastoma, melanoma and small-cell lung carcinoma cells. Cells contacted with vehicle or 0.1-5 nM Compound C0105 were incubated with 5 μCi/ml of [^3H]thymidine for 96-hours. Cells were washed and the cell content of [^3H]thymidine was quantified using scintillation spectrometry. […] N=4. **p<0.05, *p<0.01 compared to vehicle (open bars).

[7] = system: melanoma cells; experiment: [3H]thymidine incorporation; type: cell-based, human; conditions: 0.1-5 nM; 96 hours
Method: as §4

[8] = system: glioblastoma cells; experiment: [3H]thymidine incorporation; type: cell-based, human; conditions: 0.1-5 nM; 96 hours
Method: as §4

[9] = system: melanoma cells; experiment: Glucose deprivation-induced cell death (cell density); type: cell-based, human; conditions: 0.1 or 1 nM; up to 4 days
Method: (§5) The effect of Compound C0105 on cell death induced by glucose withdrawal was assessed in glioblastoma and melanoma cells. Cells were grown to >90% confluence, washed and incubated in 0.1% fetal bovine serum (FBS) for 16 hours and incubated in glucose-free 0.1% FBS-containing medium without or with 0.1 or 1 nM C0105 for up to 4 days. Cell density was assessed at the indicated time point. Data are expressed as mean±S.E.M. of percentage change in cell density compared to cells grown in glucose- and 0.1% FBS-containing medium. […] N=5-6.
(§6) In a separate series of studies, the effect of Compound C0105 on glucose dependence was assessed by changes in cell density. The cancer and primary normal cells were grown to >90% confluency. The cells were washed with PBS, incubated in 0.1% fetal bovine serum (FBS) for 16 hours and incubated in glucose-free 0.1% FBS-containing medium for up to 4 days in the presence of vehicle or 1 nM Compound C0105.

[10] = system: glioblastoma cells; experiment: as above; type: cell-based, human; conditions: 0.1 or 1 nM; up to 4 days
Method: as §5, §6

[11] = system: pS2152FLNA, FLNA-associated PTEN and PP2A in primary lung fibroblast cells; experiment: pS2152FLNA and FLNA-associated PTEN and PP2A in anti-FLNA immunoprecipitate (Western blotting); type: cell-based, human; conditions: 0.1-5 nM; 4 days
Method: The effect of contact with Compound C0105 on the levels of pS^2152FLNA and FLNA-associated phosphatases, PTEN and PP2A subclasses was determined in primary lung fibroblast cells. Cells were treated with vehicle and 0.1-5 nM Compound C0105 for 4 days. Cells were washed, solubilized and the resultant cell lysate was immunoprecipitated with anti-FLNA. The levels of pS^2152FLNA and FLNA-associated phosphatases, PTEN and PP2A subclasses in the anti-FLNA immunoprecipitate were determined by Western blotting. The density of protein bands was measured by densitometric scanning. […] N=4. **p<0.05, *p<0.01 compared to vehicle (open bars). […]
as §3

[12] = system: MiaPaCa2 pancreatic cancer cell implants; experiment: Xenograft tumor volume study

CN1CCC2(CC1)NCC(=O)N2Cc1ccccc1 [Compound C0105]
mTOR, Akt and ERK activation (phosphorylated mTOR, Akt and ERK) [1]: has little effect on mTOR, Akt and ERK activation | mTOR, Akt and ERK activation (phosphorylated mTOR, Akt and ERK) [2]: has little effect on mTOR, Akt and ERK activation | mTOR, Akt and ERK activation (phosphorylated mTOR, Akt and ERK) [3]: has little effect on mTOR, Akt and ERK activation | mTOR, Akt and ERK activation (phosphorylated mTOR, Akt and ERK) [4]: has little effect on mTOR, Akt and ERK activation | FLNA-associated PTEN and PP2A levels [5]: increases FLNA-associated PTEN and PP2A levels | pS2152FLNA level [5]: reduces pS^2152FLNA | Cell proliferation by [3H]thymidine incorporation [6]: reduces glioblastoma, melanoma and small-cell lung carcinoma cell proliferation | Cell proliferation by [3H]thymidine incorporation [7]: reduces glioblastoma, melanoma and small-cell lung carcinoma cell proliferation | Cell proliferation by [3H]thymidine incorporation [8]: reduces glioblastoma, melanoma and small-cell lung carcinoma cell proliferation | Cell death during glucose withdrawal [9]: reduced the amount of cell death | Cell death during glucose withdrawal [10]: reduced the amount of cell death | FLNA-associated PTEN and PP2A levels [11]: does not affect | pS2152FLNA level [11]: does not affect | Tumor volume ([12]; 1 mg/kg twice daily orally for 20 days): arrested growth | Tumor volume ([12]; 10 mg/kg twice daily orally for 20 days): shrank tumors | Vasculature of tumor masses ([12]; 1 or 10 mg/kg twice daily orally): visibly reduced the vasculature of tumor masses

Source: patent US10363239B2, “Method for inhibiting growth of cancer cells” (Pain Therapeutics, Inc., priority 2013, dated 2019)
